The values below come from patent US10759791B2, “Mammalian and bacterial nitric oxide synthase inhibitors” (Northwestern University, priority 2014, dated 2020).

The target in data set [1] is bBiDomain (Bacillus subtilis (strain 168), UniProt O34453). Briefly: bNOS activity inhibition with bBiDomain and YumC, nitrite by Griess reaction. The note with it: for % nitrite: inhibitor 30 μM, NOHA 200 μM, 4 min, single time point.
Data set [2] relates to B. subtilis. Put plainly: Effect of oxidative stress (ACR, H2O2) and NOS inhibitors on B. subtilis survival and growth. Type of data set: cell-based, Bacillus subtilis.
Data set [3] has as its target T1, rat nNOS (Rattus norvegicus (Rat), UniProt P29476). Briefly: Oxyhemoglobin NO assay, Ki (Table 9). Type of data set: biochemical. The conditions noted are these: for e/n: ratio Ki eNOS to Ki rat nNOS; for i/n: ratio Ki iNOS to Ki rat nNOS.
In data set [4] the target is T2, human nNOS (Homo sapiens (Human), UniProt P29475). Put plainly: Oxyhemoglobin NO assay, Ki (Table 9). Type of data set: biochemical.
Data set [5] addresses T2, human nNOS. Put plainly: Hemoglobin capture assay, Ki (Example 159). Type of data set: biochemical.
The target in data set [6] is T1, rat nNOS. Put plainly: Hemoglobin capture assay, Ki (Example 159). Type of data set: biochemical. The conditions noted are these: for Selectivity n/i: rat nNOS vs murine iNOS.
The target of data set [7] is human eNOS (Homo sapiens (Human), UniProt P29474). Briefly: Hemoglobin capture assay, Ki (Example 159). Type of data set: biochemical.
The conditions of data set [8]: human, plasma, 4 h, 5 μM.
Data set [9] is described as follows: in vitro. The note with it: human, human plasma, pH 7.4.
Data set [10] is described as follows: Plasma pharmacokinetics and brain distribution in mice. The conditions noted are these: for T1/2: i.v. 2 mg/kg.
Data set [11] has as its system S. aureus UAMS1182. Briefly: Effect of H2O2 and NOS inhibitors on S. aureus. The class given is cell-based, Staphylococcus aureus. The conditions noted are these: for H2O2-mediated killing of S. aureus on co-treatment: 200 μM inhibitor + 5 mM H2O2; for S. aureus survival, inhibitor alone: 200 μM, WT and Δnos strains.
The target in data set [12] is T1, rat nNOS. Briefly: Hemoglobin capture assay, Ki (Tables 11-12). The note with it: ratio of Ki values.
The test system of data set [13] is Caco-2 cells.
The target of data set [14] is CYP1A2 (Homo sapiens (Human), UniProt P05177). Put plainly: CYP inhibition assay, human liver microsomes. The conditions noted are these: 10 μM. In general terms: Liver microsomes are a subcellular fraction often used to study metabolism.
CYP1A2, sequence (P05177 whole entry): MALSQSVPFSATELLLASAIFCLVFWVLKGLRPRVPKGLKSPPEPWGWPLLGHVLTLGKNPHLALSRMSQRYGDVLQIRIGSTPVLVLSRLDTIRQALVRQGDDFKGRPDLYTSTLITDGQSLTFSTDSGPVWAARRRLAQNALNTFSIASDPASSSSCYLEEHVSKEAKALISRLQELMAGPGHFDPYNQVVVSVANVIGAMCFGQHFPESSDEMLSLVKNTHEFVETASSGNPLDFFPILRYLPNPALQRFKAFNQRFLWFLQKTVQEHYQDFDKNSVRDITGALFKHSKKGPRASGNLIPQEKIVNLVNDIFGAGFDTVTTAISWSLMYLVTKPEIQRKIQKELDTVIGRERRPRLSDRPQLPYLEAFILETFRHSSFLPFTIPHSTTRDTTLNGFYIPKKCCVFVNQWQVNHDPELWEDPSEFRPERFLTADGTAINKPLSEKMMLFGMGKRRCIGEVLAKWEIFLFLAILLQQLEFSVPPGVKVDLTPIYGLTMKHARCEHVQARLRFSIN

bBiDomain, sequence (O34453 other isoform, or with tags, fused parts or gaps): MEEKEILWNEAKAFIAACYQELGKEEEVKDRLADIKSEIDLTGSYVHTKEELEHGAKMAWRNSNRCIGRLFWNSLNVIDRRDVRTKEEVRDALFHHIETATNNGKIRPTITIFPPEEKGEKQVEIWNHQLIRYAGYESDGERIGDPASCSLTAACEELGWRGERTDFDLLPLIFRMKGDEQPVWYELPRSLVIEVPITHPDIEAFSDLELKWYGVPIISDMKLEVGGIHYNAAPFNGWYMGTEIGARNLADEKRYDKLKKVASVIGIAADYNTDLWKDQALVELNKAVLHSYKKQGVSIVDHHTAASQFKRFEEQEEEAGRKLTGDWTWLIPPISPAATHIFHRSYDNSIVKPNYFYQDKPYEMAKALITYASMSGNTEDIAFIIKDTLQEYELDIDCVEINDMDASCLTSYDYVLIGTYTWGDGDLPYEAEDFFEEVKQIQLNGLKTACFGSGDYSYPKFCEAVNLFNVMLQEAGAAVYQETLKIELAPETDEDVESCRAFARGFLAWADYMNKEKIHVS

For `N=C(NCCC[C@H](N)C(=O)O)N[N+](=O)[O-]` [L-NNA, N^ω-nitro-L-arginine], the “% nitrite” value in [1] amounted to 40.9±5.3%. Besides, in [2] (NOS inhibitor + ACR, 30 min), the “% survival of wt B. subtilis with ACR” value is reported as “bacterial % survival decreased in the presence of ACR”. Besides, the “% survival of wt B. subtilis with H2O2” value in data set [2] (NOS inhibitor + H2O2, 30 min) is listed as “trivial effects on bacterial survival”.

In the case of `Cc1cc(N)nc(CCc2cc(C#N)cc(N(C)CCNC3CC3)c2)c1` [Compound 21c], in [3], the e/n is recorded as 274.0 and the i/n worked out at 246.6. Besides, the inhibitory constant (Ki) in [4] was 378 nM.

Turning to `Cc1cc(N)nc(CCc2cc(C#N)cc(N(C)CCc3cccc(F)c3)c2)c1` [Compound 21d], in data set [3], the i/n is recorded as 33.7.

`Cc1cc(N)nc(CCc2cncc(N3CCOCC3)c2)c1` [Compound 14c, 4-Methyl-6-(2-(5-morpholinopyridin-3-yl)ethyl)pyridin-2-amine]: the figures for the Ki in data set [5], in data set [6] and in data set [7] were 862 nM, 547 nM and 42.6 µM, respectively. In addition, the “Selectivity n/e (human)” value in data set [5] (human nNOS vs human eNOS) is on record as 49. Also, the Selectivity n/i in [6] turned out to be 21.

As for `Cc1cc(N)nc(CCc2cc(F)cc(N(C)CCNC3CC3)c2)c1` [Compound 23c, N^1-(3-(2-(6-Amino-4-methylpyridin-2-yl)ethyl)-5-fluorophenyl)-N^2-cyclopropyl-N^1-methylethane-1,2-diamine], in data set [3], the e/n is recorded as 124.3 and the i/n is 217.8. Besides, in data set [4], the Ki was 243 nM.

For `Cc1cc(N)nc(CCc2cccc(NCCN(C)C)c2)c1` [Compound 10b, N^1-(3-(2-(6-Amino-4-methylpyridin-2-yl)ethyl)phenyl)-N^2,N^2-dimethylethane-1,2-diamine], in data set [3], the e/n is listed as 125 and the i/n was determined as 29.

Consider `CC(=O)CC(c1ccccc1)c1c(O)c2ccccc2oc1=O` (stereo not shown) [Warfarin, reference compound], for which the “% compound remaining at 4 h” value in [8] is reported as 94%. In data set [9], this molecule gave a recovery at 4 h, 5 μM of 100%.

Consider `CCNCCN(C)c1cc(F)cc(CCc2cc(C)cc(N)n2)c1` [Compound 23b, N^1-(3-(2-(6-Amino-4-methylpyridin-2-yl)ethyl)-5-fluorophenyl)-N^2-ethyl-N^1-methylethane-1,2-diamine], for which, in data set [3], the e/n is reported as 558.4 and the i/n amounted to 199.4. The affinity in data set [4], expressed as Ki, was 194 nM.

Turning to `CNCCN(C)c1cc(C#N)cc(CCc2cc(C)cc(N)n2)c1` [Compound 19c, 3-(2-(6-Amino-4-methylpyridin-2-yl)ethyl)-5-(methyl(2-(methylamino)ethyl)amino)benzonitrile], the T1/2 amounted to 24.80 h in data set [10] (brain) and 1.1 h in [10] (plasma). The same molecule had an AUCinf in [10] (p.o. 10 mg/kg, plasma) of 182.46 ng·h/mL.

With `Cc1cc(N)nc(CCc2cccc(N(C)CCN)c2)c1` [Compound 10c, N^1-(3-(2-(6-Amino-4-methylpyridin-2-yl)ethyl)phenyl)-N^1-methylethane-1,2-diamine], in [3], the e/n is 172 and the i/n was found to be 47.

As for `Cc1cc(N)nc(CCc2cc(F)cc(N3CCNCC3)c2)c1` [Compound 23h, 6-(3-Fluoro-5-(piperazin-1-yl)phenethyl)-4-methylpyridin-2-amine], in [3], the e/n is given as 82.8 and the i/n is 60.2. In [4], the affinity corresponds to a Ki of 161 nM.

In the case of `CNCCN(C)c1cccc(CCc2cc(C)cc(N)n2)c1` [Compound 10a, N^1-(3-(2-(6-Amino-4-methylpyridin-2-yl)ethyl)phenyl)-N^1,N^2-dimethylethane-1,2-diamine], in data set [3], the e/n was determined as 156 and the i/n was 41.

On to `Cc1cc(N)nc(CCc2cc(F)cc(NCc3cccc(Cl)c3)c2)c1` [Compound 23f, 6-(3-((3-Chlorobenzyl)amino)-5-fluorophenethyl)-4-methylpyridin-2-amine], for which, in [3], the e/n stood at 262.0 and the i/n is 354.1. In addition, the Ki in data set [4] was 2070 nM.

As for `Cc1cc(N)nc(-c2ccc(CNCCc3cccc(F)c3)cc2)c1` [Compound 27, 6-(4-(((3-Fluorophenethyl)amino)methyl)phenyl)-4-methylpyridin-2-amine], in data set [1], affinity was put at a Ki of 502 nM and the “% nitrite” value stood at 13.2%. For the same molecule, in data set [11], the “H2O2-mediated killing of S. aureus on co-treatment” value is “significantly increases the H2O2-mediated killing” and the “S. aureus survival, inhibitor alone” value was “reduced bacterial survival over time”.

As to `CNCCN(C)c1cc(CCc2cc(C)cc(N)n2)cc(C(F)(F)F)c1` [Compound 19a, N^1-(3-(2-(6-Amino-4-methylpyridin-2-yl)ethyl)-5-(trifluoromethyl)phenyl)-N^1,N^2-dimethylethane-1,2-diamine], in data set [3], the e/n was 238 and the i/n amounted to 122.

In the case of `CCNCCN(C)c1cc(C#N)cc(CCc2cc(C)cc(N)n2)c1` [Compound 21a], in data set [3], the e/n amounted to 583.7 and the i/n is reported as 178.0. In addition, the Ki in data set [4] amounted to 225 nM.

As for `CCN(CCNC)c1cc(F)cc(CCc2cc(C)cc(N)n2)c1` [Compound 23d, N^1-(3-(2-(6-Amino-4-methylpyridin-2-yl)ethyl)-5-fluorophenyl)-N^1-ethyl-N^2-methylethane-1,2-diamine], in [3], the e/n worked out at 93.2 and the i/n stood at 109.6. Further, the Ki in data set [4] was determined as 139 nM.

For acriflavine, in [2] (single agent, 500 μM NOS inhibitor or 800 μM ACR), the “bacterial growth, % of control” value came to 23%.

Consider `CNCCN(c1cc(F)cc(CCc2cc(C)cc(N)n2)c1)C1CC1` [Compound 23e, N^1-(3-(2-(6-amino-4-methylpyridin-2-yl)ethyl)-5-fluorophenyl)-N^1-cyclopropyl-N^2-methylethane-1,2-diamine], for which, in data set [3], the e/n is listed as 140.9 and the i/n came to 148.7. The molecule also gave a Ki in data set [4] of 238 nM.

`Cc1cc(N)nc(CCc2cc(F)cc(NC3CCNCC3)c2)c1` [Compound 23i, 6-(3-Fluoro-5-(piperidin-4-ylamino)phenethyl)-4-methylpyridin-2-amine]: in data set [3], the e/n was 40.2 and the i/n is 110.9. Moreover, the affinity in data set [4], expressed as Ki, was 384 nM.

On to `Cc1cc(N)nc(CCc2cccc(N(C)CCCN)c2)c1` [Compound 10d, N^1-(3-(2-(6-Amino-4-methylpyridin-2-yl)ethyl)phenyl)-N-methylpropane-1,3-diamine], for which, in data set [3], the e/n worked out at 25 and the i/n turned out to be 11.

In the case of `Nc1ccc2ccc(CCNCCCc3cccc(F)c3)cc2n1` [Compound 19, reference compound], in data set [1], the affinity corresponds to a Ki of 69.7 nM and the “% nitrite” value turned out to be 6.1%. Besides, in data set [11], the “H2O2-mediated killing of S. aureus on co-treatment” value is listed as “significantly increases the H2O2-mediated killing” and the “S. aureus survival, inhibitor alone” value is recorded as “reduced bacterial survival over time”.

In the case of `Cc1cc(N)nc(CCc2cc(F)cc(NCc3cccnc3)c2)c1` [Compound 23g, 6-(3-Fluoro-5-((pyridin-3-ylmethyl)amino)phenethyl)-4-methylpyridin-2-amine], in data set [3], the e/n stood at 10.0 and the i/n is 10.7. In data set [4], the Ki came to 255 nM.

In data set [6], `COCCCNc1cncc(CCc2cc(C)cc(N)n2)c1` [Compound 14e, 6-(2-(5-(3-Methoxypropylamino)pyridin-3-yl)ethyl)-4-methylpyridin-2-amine] showed a Ki of 558 nM and a Selectivity n/i of 13.

In the case of `Cc1ccnc(CCc2cccc([C@@H](N)Cc3cc(C)cc(N)n3)c2)c1` [Compound 5S, (S)-6-(2-Amino-2-(3-(2-(4-methylpyridin-2-yl)ethyl)phenyl)ethyl)-4-methylpyridin-2-amine], in data set [12], the e/n is reported as 363 and the i/n is on record as greater than 110.

Regarding `CNC(=C[N+](=O)[O-])NCCSCc1ccc(CN(C)C)o1` [Ranitidine], in data set [13] (10 μM, 2 h), the “apparent permeability (Papp) mean A → B” value is on record as 0.45 10^−6 cm s^−1 and the “apparent permeability (Papp) mean B → A” value is 1.2 10^−6 cm s^−1. In addition, the efflux ratio in [13] (Papp (B→A)/Papp (A→B)) stood at 2.7.

Consider `Cc1cc(N)nc(CCc2cc(F)cc(NCCN(C)C)c2)c1` [Compound 23a, N^1-(3-(2-(6-Amino-4-methylpyridin-2-yl)ethyl)-5-fluorophenyl)-N^2,N^2-dimethylethane-1,2-diamine], for which, in [3], the e/n came to 136.9 and the i/n is recorded as 47.3. Besides, affinity in data set [4] was put at a Ki of 758 nM.

Regarding `Cc1cc(N)nc(CCc2cc(C#N)cc(N(C)CCNC(C)C)c2)c1` [Compound 21b], in data set [3], the e/n is given as 320.1 and the i/n is recorded as 361.5. The inhibition constant (Ki) in data set [4] amounted to 357 nM.

For the molecule `Cc1ccnc(CCc2cccc([C@H](N)Cc3cc(C)cc(N)n3)c2)c1` [Compound 5R, (R)-6-(2-Amino-2-(3-(2-(4-methylpyridin-2-yl)ethyl)phenyl)ethyl)-4-methylpyridin-2-amine], in [12], the e/n is 240 and the i/n is greater than 22.

Take `COCCCC/C(=N\OCCN)c1ccc(C(F)(F)F)cc1` [Fluvoxamine, reference compound]: the “% inhibition CYP1A2” value in [14] is 95%.

By Ki is commonly meant the dissociation constant of the complex between target and ligand, obtained from inhibition or displacement. A lower Ki goes with a stronger hold on the target. As a reminder, the efflux ratio is the permeability from basolateral to apical divided by that in the opposite direction, in the common usage.
